Data published in patent publication US9283226B2, “Pyrazole derivatives as protein kinase modulators” (Astex Therapeutics Ltd, priority 2003, dated 2016).

Biological target: T1, PKB-PIF fusion protein (Homo sapiens, UniProt P31751)
T1 construct: made in house
Assay: Measurement of PKB kinase inhibitory activity (IC50), radiometric filter plate assay
Type: biochemical
Conditions: 0.6 nM enzyme, 30 μM ATP, 25 μM AKTide-2T substrate, 20 minutes
Experimental: The reaction is allowed to proceed for 20 minutes before addition of excess orthophosphoric acid to quench activity. The reaction mixture is transferred to a phosphocellulose filter plate where the peptide binds and the unused ATP is washed away. After washing, scintillant is added and the incorporated activity measured by scintillation counting.

T1 sequence (P31751 with tags, fused parts or gaps limits assumed): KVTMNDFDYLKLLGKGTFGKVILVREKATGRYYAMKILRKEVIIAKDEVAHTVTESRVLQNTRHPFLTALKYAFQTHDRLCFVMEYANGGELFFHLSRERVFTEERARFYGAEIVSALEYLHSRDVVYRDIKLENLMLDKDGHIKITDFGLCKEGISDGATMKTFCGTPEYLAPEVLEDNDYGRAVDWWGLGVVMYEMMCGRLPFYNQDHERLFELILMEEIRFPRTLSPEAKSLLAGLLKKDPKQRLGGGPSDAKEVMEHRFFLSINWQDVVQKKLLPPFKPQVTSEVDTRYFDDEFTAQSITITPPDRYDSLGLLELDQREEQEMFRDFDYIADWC

IC50 [nM] | SMILES
< 1000 | CNC[C@@H](c1ccc(Cl)cc1)c1ccc(-c2cn[nH]c2)cc1 [Example 22, {2-(4-Chloro-phenyl)-2-[4-(1H-pyrazol-4-yl)-phenyl]-ethyl}-methyl-amine (R)]
< 5000 | CNCC(c1ccccc1)c1ccc(-c2c[nH]nc2C)nc1 (centres unmarked) [Example 60]
